Measurements published in US20210179680A1, “POLYPEPTIDE, DERIVATIVES THEREOF, AND APPLICATION THEREOF IN PREPARATION OF DRUGS HAVING RESISTANCE TO PULMONARY FIBROSIS” (priority 2016, published 2021).
Bridge positions count the residues as written; N and C are the ends. Square brackets hold non-standard residues; d marks the D form. Peptide text beside a SMILES is read from it. S5 = C=CCCC[C@](C)(N)C(=O)O

Test system: mice with bleomycin-induced pulmonary fibrosis
Assay: Hydroxyproline content in lung of mice with pulmonary fibrosis
Assay type: in vivo, C57BL/6 mice
Conditions: 2 mg/kg i.p.; for hydroxyproline content (μg/mg protein): left lung lobes, chloramine-T method; for content of hydroxyproline in the lungs (in words): versus bleomycin group
Experimental: Male C57BL/6 mice were fasted overnight, then anesthetized with 45 mg/kg sodium pentobarbital by injection intraperitoneally (i.p.), and intratracheally injected with bleomycin at a dose of 3 U/kg. The specific operation steps are as follows: cut the neck skin of the mouse with as little trauma as possible, expose the trachea with the assistance of elbow ophthalmic forceps, puncture the trachea and inject about 50 μL of bleomycin into the trachea with a microsyringe, rotate the mouse quickly and stand it upright for 5 minutes in order to make bleomycin evenly enter the left and right lobe, thereby constructing an animal model. The whole operation was performed at a surgical table at about […]. Mice in the sham operation group were intratracheally injected with an equal amount of physiological saline for injection.
(§1) Hydroxyproline accounts for 13.4% (w/w) of collagen, and extremely small amount of elastin, while it is absent in other proteins. […] Pulmonary fibrosis models were prepared according to the method described in Example 2 and administered in groups according to Table 3. The content of hydroxyproline in the lobes of left lung of the animals was measured 28 days later, and the condition of pulmonary fibrosis was evaluated.
The specific method is as follows: the mice in the animal model prepared in Example 2 was feed in a SPF animal room and treated with polypeptide according to the dosing schedule of Table 3, and all left lobes of lung of the experimental animal was taken on the 21st day after the animal model was constructed and the wet weight was recorded. Then 10% (w/w) tissue homogenate was prepared by ultrasonic homogenization using physiological saline. About 150 μL of homogenate supernatant was taken, and 500 μL of alkali hydrolysate was added (provided by Hydroxyproline alkaline hydrolysis kit of Nanjing Jiancheng Bioengineering Technology Co., Ltd.). After vortex mixing, the mixture was treated with alkaline hydrolysis for 40 min under conditions of 120° C., 0.1 Kpa. After adjusting the pH value, the volume was held constant, and the supernatant was taken after performing activated carbon treatment. The hydroxyproline was determined according to the chloramine-T method (the method of the present example refers to the instruction provided with kit, which was purchased from Nanjing Jiancheng Bioengineering Technology Co., Ltd.). […] In FIG. 10, “##” represents that P value is less than 0.01 when comparing the content of hydroxyproline in the administration group with that in the sham operation group; and “*” represents that P value is less than 0.05 and“**” represents that P value is less than 0.01 when comparing the content of hydroxyproline in the administration group with that in bleomycin group.
as §1, with “collagen, and accounts for extremely small” for “collagen, and extremely small”, “in the all lobes of” for “in the lobes of”
The specific method is as follows: the mice in the animal model prepared in Example 2 was feed in an SPF animal room and treated with polypeptide according to the dosing schedule of Table 3, and all the left lobes of lung of the experimental animal was taken on the 21st day after the animal model was constructed and the wet weight was recorded. Then 10% (w/w) tissue homogenate was prepared by ultrasonic homogenization using physiological saline. About 150 μL of homogenate supernatant was taken, and 500 μL of alkali hydrolysate was added (provided by Hydroxyproline alkaline hydrolysis kit of Nanjing Jiancheng Bioengineering Technology Co., Ltd.). After vortex mixing, the mixture was treated with alkaline hydrolysis for 40 min under conditions of 120° C., 0.1 Kpa. […]

Row | Compound | hydroxyproline content (μg/mg protein) (Table 3 groups) | hydroxyproline content (μg/mg protein) (S19-S21 groups) | content of hydroxyproline in the lungs (in words) (S19-S21 groups)
1 | CSCC[C@H](NC(=O)[C@H](CC(C)C)NC(=O)[C@@H](N)Cc1c[nH]cn1)C(=O)N[C@@H](C)C(=O)N[C@@H](CS)C(=O)N[C@@]1(C)CCCC=CCCC[C@@](C)(C(=O)N[C@@H](CCCCN)C(=O)N[C@@H](CC(C)C)C(=O)N[C@@H](CCCCN)C(=O)N[C@@H](CCCCN)C(=O)N[C@@H](CCCNC(=N)N)C(=O)O)NC(=O)[C@H](C)NC(=O)[C@H](CS)NC(=O)[C@H]([C@@H](C)O)NC1=O [S6, His-Leu-Met-Ala-Cys-S5-Thr-Cys-Ala-S5-Lys-Leu-Lys-Lys-Arg] (H-HLMAC[S5]TCA[S5]KLKKR-OH; staple 6-10; N-terminus and C-terminus assumed) | 0.8337 | – | –
2 | CSCC[C@H](NC(=O)[C@H](CC(C)C)NC(=O)[C@@H](N)Cc1c[nH]cn1)C(=O)N[C@@H](C)C(=O)N[C@@H](CS)C(=O)N[C@@H](Cc1ccccc1)C(=O)N[C@@]1(C)CCCC=CCCC[C@@](C)(C(=O)N[C@@H](CC(C)C)C(=O)N[C@@H](CCCCN)C(=O)N[C@@H](CCCCN)C(=O)N[C@@H](CCCNC(=N)N)C(=O)O)NC(=O)[C@H](CCCCN)NC(=O)[C@H](C)NC(=O)[C@H](CS)NC1=O [S7, His-Leu-Met-Ala-Cys-Phe-S5-Cys-Ala-Lys-S5-Leu-Lys-Lys-Arg] (H-HLMACF[S5]CAK[S5]LKKR-OH; staple 7-11; N-terminus and C-terminus assumed) | 0.655 | – | –
3 | CSCC[C@H](NC(=O)[C@H](CC(C)C)NC(=O)[C@@H](N)Cc1c[nH]cn1)C(=O)N[C@@H](C)C(=O)N[C@@H](CS)C(=O)N[C@@H](Cc1ccccc1)C(=O)N[C@H](C(=O)N[C@@]1(C)CCCC=CCCC[C@@](C)(C(=O)N[C@@H](CCCCN)C(=O)N[C@@H](CCCCN)C(=O)N[C@@H](CCCNC(=N)N)C(=O)O)NC(=O)[C@H](CCCCN)NC(=O)[C@H](CCCCN)NC(=O)[C@H](C)NC1=O)[C@@H](C)O [S8, His-Leu-Met-Ala-Cys-Phe-Thr-S5-Ala-Lys-Lys-S5-Lys-Lys-Arg] (H-HLMACFT[S5]AKK[S5]KKR-OH; staple 8-12; N-terminus and C-terminus assumed) | 0.825 | – | –
4 | CSCC[C@H](NC(=O)[C@H](CC(C)C)NC(=O)[C@@H](N)Cc1c[nH]cn1)C(=O)N[C@@H](C)C(=O)N[C@@H](CS)C(=O)N[C@@H](Cc1ccccc1)C(=O)N[C@H](C(=O)N[C@@H](CS)C(=O)N[C@@]1(C)CCCC=CCCC[C@@](C)(C(=O)N[C@@H](CCCCN)C(=O)N[C@@H](CCCNC(=N)N)C(=O)O)NC(=O)[C@H](CC(C)C)NC(=O)[C@H](CCCCN)NC(=O)[C@H](CCCCN)NC1=O)[C@@H](C)O [S9, His-Leu-Met-Ala-Cys-Phe-Thr-Cys-S5-Lys-Lys-Leu-S5-Lys-Arg] (H-HLMACFTC[S5]KKL[S5]KR-OH; staple 9-13; N-terminus and C-terminus assumed) | 0.7212 | – | –
5 | CSCC[C@H](NC(=O)[C@H](CC(C)C)NC(=O)[C@@H](N)Cc1c[nH]cn1)C(=O)N[C@@H](C)C(=O)N[C@@H](CS)C(=O)N[C@@H](Cc1ccccc1)C(=O)N[C@H](C(=O)N[C@@H](CS)C(=O)N[C@@H](C)C(=O)N[C@@]1(C)CCCC=CCCC[C@@](C)(C(=O)N[C@@H](CCCNC(=N)N)C(=O)O)NC(=O)[C@H](CCCCN)NC(=O)[C@H](CC(C)C)NC(=O)[C@H](CCCCN)NC1=O)[C@@H](C)O [S10, His-Leu-Met-Ala-Cys-Phe-Thr-Cys-Ala-S5-Lys-Leu-Lys-S5-Arg] (H-HLMACFTCA[S5]KLK[S5]R-OH; staple 10-14; N-terminus and C-terminus assumed) | 0.8163 | – | –
6 | CSCC[C@H](NC(=O)[C@H](CC(C)C)NC(=O)[C@@H](N)Cc1c[nH]cn1)C(=O)N[C@@H](C)C(=O)N[C@@H](CS)C(=O)N[C@@H](Cc1ccccc1)C(=O)N[C@H](C(=O)N[C@@H](CS)C(=O)N[C@@H](C)C(=O)N[C@@H](CCCCN)C(=O)N[C@@]1(C)CCCC=CCCC[C@@](C)(C(=O)O)NC(=O)[C@H](CCCCN)NC(=O)[C@H](CCCCN)NC(=O)[C@H](CC(C)C)NC1=O)[C@@H](C)O [S11, His-Leu-Met-Ala-Cys-Phe-Thr-Cys-Ala-Lys-S5-Leu-Lys-Lys-S5] (H-HLMACFTCAK[S5]LKK[S5]-OH; staple 11-15; N-terminus and C-terminus assumed) | 0.7725 | – | –
7 | S19: chimeric polypeptide Pep2-MR2, amino acid sequence SEQ ID NO: 19 (HLYVSPWGGHLMACFTCAKKLKKR; chimeric polypeptide Pep2-MR2 S19) | – | 0.5637 | reduce hydroxyproline content
8 | S20: chimeric polypeptide TAT-MR2, amino acid sequence SEQ ID NO: 20 (YGRKKRRQRRRGGHLMACFTCAKKLKKR; chimeric polypeptide TAT-MR2 S20) | – | 0.7443 | reduce hydroxyproline content
9 | S21: chimeric polypeptide Antp-MR2, amino acid sequence SEQ ID NO: 21 (RQIKIWFQNRRMKWKKGGHLMACFTCAKKLKKR; chimeric polypeptide Antp-MR2 S21) | – | 0.7488 | reduce hydroxyproline content
